Laboratory results as given in PMC2527638 (Toxicological Sciences, 2008).

How the values were obtained:
[1] = system: FLAG-ERβ; format: cell-based, human; settings: in the presence of 1000 ng tetracycline/ml, 24 h
[2] = target: ERβ (Homo sapiens, UniProt Q92731); experiment: ERβ-specific U2OS reporter gene assay; format: cell-based
[3] = target: T1, ERα (Homo sapiens, UniProt P03372); experiment: ERα-specific U2OS reporter gene assay; format: cell-based
T1 sequence (P03372 1-595): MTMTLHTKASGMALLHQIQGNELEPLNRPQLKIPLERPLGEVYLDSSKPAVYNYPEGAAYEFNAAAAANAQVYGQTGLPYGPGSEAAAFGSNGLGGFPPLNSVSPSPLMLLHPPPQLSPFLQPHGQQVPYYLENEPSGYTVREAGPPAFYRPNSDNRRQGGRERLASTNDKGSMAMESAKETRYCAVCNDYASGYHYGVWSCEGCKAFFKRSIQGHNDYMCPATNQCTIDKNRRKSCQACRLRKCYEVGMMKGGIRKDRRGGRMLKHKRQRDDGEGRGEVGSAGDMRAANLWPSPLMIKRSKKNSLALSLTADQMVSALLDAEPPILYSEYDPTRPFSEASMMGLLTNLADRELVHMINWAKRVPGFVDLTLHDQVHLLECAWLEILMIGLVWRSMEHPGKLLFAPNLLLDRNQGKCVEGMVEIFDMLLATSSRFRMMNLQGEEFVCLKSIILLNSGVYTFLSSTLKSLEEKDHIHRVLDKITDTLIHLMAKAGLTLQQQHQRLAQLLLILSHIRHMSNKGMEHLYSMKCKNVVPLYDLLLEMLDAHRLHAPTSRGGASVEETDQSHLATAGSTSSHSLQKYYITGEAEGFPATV

Sequence of ERβ (Q92731 whole entry): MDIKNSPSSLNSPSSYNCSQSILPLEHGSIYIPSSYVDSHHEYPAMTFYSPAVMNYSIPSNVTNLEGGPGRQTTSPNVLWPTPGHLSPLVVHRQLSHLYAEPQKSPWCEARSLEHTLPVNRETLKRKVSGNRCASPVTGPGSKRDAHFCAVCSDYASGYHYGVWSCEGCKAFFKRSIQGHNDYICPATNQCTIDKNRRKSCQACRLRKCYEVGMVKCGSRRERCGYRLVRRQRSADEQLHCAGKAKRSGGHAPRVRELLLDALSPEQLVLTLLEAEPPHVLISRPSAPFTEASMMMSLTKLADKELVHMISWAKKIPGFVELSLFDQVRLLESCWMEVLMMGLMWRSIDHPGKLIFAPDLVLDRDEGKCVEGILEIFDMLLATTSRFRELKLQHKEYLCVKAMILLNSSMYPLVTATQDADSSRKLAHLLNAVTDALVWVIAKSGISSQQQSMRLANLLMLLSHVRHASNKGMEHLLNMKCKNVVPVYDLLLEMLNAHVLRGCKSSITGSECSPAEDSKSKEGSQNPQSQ

| Transcription of the reporter gene in the ERβ-U2OS-Luc cell line [2] | EC50 [3] [nM] | SMILES | FLAG-ERβ protein expression [1] |
| --- | --- | --- | --- |
|  |  | CN(C)[C@@H]1C(O)=C(C(N)=O)C(=O)[C@@]2(O)C(O)=C3C(=O)c4c(O)cccc4[C@@](C)(O)[C@H]3C[C@@H]12 [tetracycline, Tetracycline] | No detectable FLAG-ERβ protein |
| unable to induce any transcription | 0.14 | CCCc1c(-c2ccc(O)cc2)nn(-c2ccc(O)cc2)c1-c1ccc(O)cc1 [PPT, 4,4′,4″-(4-propyl-[1H]pyrazole-1,3,5-triyl) Tris-phenol] |  |
